Measurements from PMC7180572, “5-Alkylamino-N-phenylpyrazine-2-carboxamides: Design, Preparation, and Antimycobacterial Evaluation” (Molecules, 2020).
pIC50: −log10 of the molar value. In brackets after ≈: the same amount, converted by molar mass. Several values for one entry are separate records, joined by “and”; a condition that tells them apart may be missing. Identical values can stand only once. Like-named read-outs stand apart in the source and are kept apart here.

Tests used:
[1] = test system: Mycobacterium smegmatis DSM 43465 (ATCC 607); assay: Microdilution broth, modified Microplate Alamar Blue Assay, whole cell growth inhibition; assay type: cell-based; details: Mycolicibacterium smegmatis, read-out: MIC Mycobacterium smegmatis
[2] = test system: Staphylococcus epidermidis ATCC 12228, CCM 4418; assay: Antibacterial microdilution broth method (EUCAST); assay type: cell-based; details: read-out: MIC SE
[3] = test system: Mycobacterium aurum DSM 43999 (ATCC 23366); assay: Microdilution broth, modified Microplate Alamar Blue Assay, whole cell growth inhibition; assay type: cell-based; details: Mycolicibacterium aurum, read-out: MIC Mycobacterium aurum
[4] = test system: Enterococcus faecalis ATCC 29212, CCM 4224; assay: Antibacterial microdilution broth method (EUCAST); assay type: cell-based; details: read-out: MIC EF
[5] = test system: Staphylococcus aureus spp.aureus ATCC 29213, CCM 4223; assay: Antibacterial microdilution broth method (EUCAST); assay type: cell-based; details: read-out: MIC SA
[6] = test system: Pseudomonas aeruginosa ATCC 27853, CCM 3955; assay: Antibacterial microdilution broth method (EUCAST); assay type: cell-based; details: read-out: MIC PA
[7] = test system: Escherichia coli ATCC 25922, CCM 3954; assay: Antibacterial microdilution broth method (EUCAST); assay type: cell-based; details: read-out: MIC EC
[8] = test system: Mycobacterium tuberculosis H37Ra ITM-M006710 (ATCC 9431); assay: Microdilution broth, modified Microplate Alamar Blue Assay, whole cell growth inhibition; assay type: cell-based; details: Mycobacterium tuberculosis, read-out: MIC Mtb H37Ra
[9] = test system: Staphylococcus aureus methicillin resistant ATCC 43300, CCM 4750; assay: microbe, parasite or virus in culture; assay type: cell-based; details: ATCC 43300 / CCM 4750 / MRSA, read-out: MIC MRSA
HepG2 cells = assay: HepG2 cytotoxicity, CellTiter 96 (MTS) assay; assay type: cell-based, human; details: for pIC50: Homo sapiens, HepG2, 24 h, read-out: HepG2 IC50
[10] = test system: Klebsiella pneumoniae ATCC 10031, CCM 4415; assay: Antibacterial microdilution broth method (EUCAST)
[11] = test system: Candida krusei ATCC 6258, CCM 8271; assay: Antifungal microdilution broth method (EUCAST); assay type: cell-based; details: Pichia kudriavzevii, read-out: MIC CK
[12] = test system: Aspergillus flavus CCM 8363; assay: Antifungal microdilution broth method (EUCAST); assay type: cell-based; details: read-out: MIC AFla
[13] = test system: Candida albicans ATCC 24433, CCM 8320; assay: Antifungal microdilution broth method (EUCAST); assay type: cell-based; details: read-out: MIC CA
[14] = test system: Absidia corymbifera CCM 8077 (Lichtheimia corymbifera); assay: Antifungal microdilution broth method (EUCAST); assay type: cell-based; details: read-out: MIC AC
[15] = test system: Trichophyton interdigitale ATCC 9533, CCM 8377; assay: Antifungal microdilution broth method (EUCAST); assay type: cell-based; details: read-out: MIC TI
[16] = test system: Aspergillus fumigatus ATCC 204305; assay: Antifungal microdilution broth method (EUCAST); assay type: cell-based; details: read-out: MIC AF
[17] = test system: Acinetobacter baumanii ATCC 19606, DSM 30007; assay: Antibacterial microdilution broth method (EUCAST); assay type: cell-based; details: Acinetobacter baumannii
[18] = test system: Candida parapsilosis ATCC 22019, CCM 8260; assay: Antifungal microdilution broth method (EUCAST); assay type: cell-based; details: Lodderomyces parapsilosis, read-out: MIC CP
[19] = test system: Candida tropicalis ATCC 750, CCM 8264; assay: Antifungal microdilution broth method (EUCAST); assay type: cell-based; details: read-out: MIC CT
[20] = in vitro, Middlebrook 7H9 broth, resazurin

## CCCCCNc1cnc(C(=O)Nc2ccc(C)cc2)cn1 [Compound 4c, 5-(Pentylamino)-N-(p-tolyl)pyrazine-2-carboxamide]
[1]
  MIC: ≥ 500 µg/mL
[2]; 24 h
  MIC: > 500 µM
[2]; 48 h
  MIC: > 500 µM
[3]
  MIC: ≥ 500 µg/mL
[4]; 24 h
  MIC: > 500 µM
[4]; 48 h
  MIC: > 500 µM
[5]; 24 h
  MIC: > 500 µM
[5]; 48 h
  MIC: > 500 µM
[6]; 72 h
  MIC: > 500 µM
[6]; 120 h
  MIC: > 500 µM
[7]; 24 h
  MIC: > 500 µM
[7]; 48 h
  MIC: > 500 µM
[8]; [20]
  MIC: ≥ 500 µg/mL
other
  melting point: 155.9 to 156.6 °C
[9]; 24 h
  MIC: > 500 µM
[9]; 48 h
  MIC: > 500 µM
HepG2 cells
  pIC50: < 4.60
[10]; 24h
  MIC KP: > 500 µM
[10]; 48h
  MIC KP: > 500 µM
[11]; 24 h
  MIC: > 125 µM
[11]; 48 h
  MIC: > 125 µM
[12]; CCM8363, 24 h
  MIC: > 125 µM
[12]; CCM8363, 48 h
  MIC: > 125 µM
[13]; 24 h
  MIC: > 125 µM
[13]; 48 h
  MIC: > 125 µM
[14]; CCM8077, 24 h
  MIC: > 125 µM
[14]; CCM8077, 48 h
  MIC: > 125 µM
[15]; 72 h
  MIC: > 125 µM
[15]; 120 h
  MIC: > 125 µM
[16]; ATCC204305, 24 h
  MIC: > 125 µM
[16]; ATCC204305, 48 h
  MIC: > 125 µM
[17]; 24h
  MIC: > 500 µM
[17]; 48h
  MIC: > 500 µM
[18]; 24 h
  MIC: > 125 µM
[18]; 48 h
  MIC: > 125 µM
[19]; 24 h
  MIC: > 125 µM
[19]; 48 h
  MIC: > 125 µM

## CCCCCCCCNc1cnc(C(=O)Nc2ccc(C)cc2)cn1 [Compound 4f, 5-(octylamino)-N-(p-tolyl)pyrazine-2-carboxamide]
[1]
  MIC: ≥ 250 µg/mL
[2]; 24 h
  MIC: > 125 µM
[2]; 48 h
  MIC: > 125 µM
[3]
  MIC: ≥ 250 µg/mL
[4]; 24 h
  MIC: > 125 µM
[4]; 48 h
  MIC: > 125 µM
[5]; 24 h
  MIC: > 125 µM
[5]; 48 h
  MIC: > 125 µM
[6]; 72 h
  MIC: > 125 µM
[6]; 120 h
  MIC: > 125 µM
[7]; 24 h
  MIC: > 125 µM
[7]; 48 h
  MIC: > 125 µM
[8]; [20]
  MIC: ≥ 250 µg/mL
other
  melting point: 155 to 156 °C
[9]; 24 h
  MIC: > 125 µM
[9]; 48 h
  MIC: > 125 µM
HepG2 cells
  pIC50: < 4.60
[10]; 24h
  MIC KP: > 125 µM
[10]; 48h
  MIC KP: > 125 µM
[11]; 24 h
  MIC: > 125 µM
[11]; 48 h
  MIC: > 125 µM
[12]; CCM8363, 24 h
  MIC: > 125 µM
[12]; CCM8363, 48 h
  MIC: > 125 µM
[13]; 24 h
  MIC: > 125 µM
[13]; 48 h
  MIC: > 125 µM
[14]; CCM8077, 24 h
  MIC: > 125 µM
[14]; CCM8077, 48 h
  MIC: > 125 µM
[15]; 72 h
  MIC: > 125 µM
[15]; 120 h
  MIC: > 125 µM
[16]; ATCC204305, 24 h
  MIC: > 125 µM
[16]; ATCC204305, 48 h
  MIC: > 125 µM
[17]; 24h
  MIC: > 125 µM
[17]; 48h
  MIC: > 125 µM
[18]; 24 h
  MIC: > 125 µM
[18]; 48 h
  MIC: > 125 µM
[19]; 24 h
  MIC: > 125 µM
[19]; 48 h
  MIC: > 125 µM

## CCCNc1cnc(C(=O)Nc2ccc(CC)cc2)cn1 [Compound 5a, N-(4-ethylphenyl)-5-(propylamino)pyrazine-2-carboxamide]
[1]
  MIC: 7.81 µg/mL (≈ 27.5 µM)
[2]; 24 h
  MIC: > 125 µM
[2]; 48 h
  MIC: > 125 µM
[3]
  MIC: ≥ 500 µg/mL
[4]; 24 h
  MIC: > 125 µM
[4]; 48 h
  MIC: > 125 µM
[5]; 24 h
  MIC: > 125 µM
[5]; 48 h
  MIC: > 125 µM
[6]; 72 h
  MIC: > 125 µM
[6]; 120 h
  MIC: > 125 µM
[7]; 24 h
  MIC: > 125 µM
[7]; 48 h
  MIC: > 125 µM
[8]; MIC converted to µM
  MIC: 27.5 µM
[8]; [20]
  MIC: 7.81 µg/mL
other
  melting point: 141.8 to 142.8 °C
[9]; 24 h
  MIC: > 125 µM
[9]; 48 h
  MIC: > 125 µM
HepG2 cells
  pIC50: 3.31
HepG2 cells; IC50 (HepG2)/MIC against Mtb H37Ra (in µM)
  SI, selectivity index: 18 and 18.01
[10]; 24h
  MIC KP: > 125 µM
[10]; 48h
  MIC KP: > 125 µM
[11]; 24 h
  MIC: > 125 µM
[11]; 48 h
  MIC: > 125 µM
[12]; CCM8363, 24 h
  MIC: > 125 µM
[12]; CCM8363, 48 h
  MIC: > 125 µM
[13]; 24 h
  MIC: > 125 µM
[13]; 48 h
  MIC: > 125 µM
[14]; CCM8077, 24 h
  MIC: > 125 µM
[14]; CCM8077, 48 h
  MIC: > 125 µM
[15]; 72 h
  MIC: > 125 µM
[15]; 120 h
  MIC: > 125 µM
[16]; ATCC204305, 24 h
  MIC: > 125 µM
[16]; ATCC204305, 48 h
  MIC: > 125 µM
[17]; 24h
  MIC: > 125 µM
[17]; 48h
  MIC: > 125 µM
[18]; 24 h
  MIC: > 125 µM
[18]; 48 h
  MIC: > 125 µM
[19]; 24 h
  MIC: > 125 µM
[19]; 48 h
  MIC: > 125 µM
